tested on: promoter of the ampicillin resistance gene (expression vector DNA); experiment: Binding of PNA-peptide-hybrids to double stranded vector DNA (inhibition of Earl cleavage at the PNA binding site); conditions: 37 °C, 60 min; 25 μM PNA-peptide-hybrid, 100 ng vector
Description: 100 ng expression vector were incubated in TE (pH 7,8) with 25 μM of different PNA-peptide-hybrids at either 65° C. or 37° C. for five minutes to three hours. The PNA-sequence NH2-CTCTTCCTTTTTC-COOH (SEQ ID NO: 6) used here, binds to the promoter of the ampicillin resistance gene.
At the C-terminus either a peptide of 21 amino acids (Peptide 1) or 27 amino acids (Peptide 2) or a spacer of 10 AEEA-units (Fmoc-AEEA-OH Spacer, PerSeptive Biosystems Inc., Framingham, USA) followed by 27 amino acids (Peptide 3) is located. The binding assays were subsequently incubated with restriction endonuclease Earl. Restricted DNA was stained with YOYO (Molecular Probes, Inc., Eugene, Oreg., USA) separated on an agarose gel and quantified with a fluorescence scanner (Image Plate Reader FLA 2000, analysis software L-Process, version 1.6, Fuji Photo Film Co., Ltd., Tokio). Cleavage of DNA by restriction endonuclease Earl is inhibited at the PNA binding site. Additional Earl restriction sites serve as internal control of the reaction.

| Substance | Portion of peptide-labelled DNA shown as percentage of input DNA [%] |
| --- | --- |
| NH2-(AEEA)10-GKPSSDDEATADSQHSTPPKKKRKVED-COOH [Peptide 3] | 74 |
| H-GKPTADDQHSTPPKKKRKVED-OH [Peptide 1] | 85 |
| H-GKPSSDDEATADSQHSTPPKKKRKVED-OH [Peptide 2] | 90 |

same assay, conditions: 37 °C, 120 min; 25 μM PNA-peptide-hybrid, 100 ng vector

| Substance | Portion of peptide-labelled DNA shown as percentage of input DNA [%] |
| --- | --- |
| NH2-(AEEA)10-GKPSSDDEATADSQHSTPPKKKRKVED-COOH [Peptide 3] | 76 |
| H-GKPTADDQHSTPPKKKRKVED-OH [Peptide 1] | 91 |
| H-GKPSSDDEATADSQHSTPPKKKRKVED-OH [Peptide 2] | 91 |

same assay, conditions: 37 °C, 180 min; 25 μM PNA-peptide-hybrid, 100 ng vector

| Substance | Portion of peptide-labelled DNA shown as percentage of input DNA [%] |
| --- | --- |
| NH2-(AEEA)10-GKPSSDDEATADSQHSTPPKKKRKVED-COOH [Peptide 3] | 90 |
| H-GKPTADDQHSTPPKKKRKVED-OH [Peptide 1] | 94 |
| H-GKPSSDDEATADSQHSTPPKKKRKVED-OH [Peptide 2] | 94 |

same assay, conditions: 65 °C, 5 min; 25 μM PNA-peptide-hybrid, 100 ng vector

| Substance | Portion of peptide-labelled DNA shown as percentage of input DNA [%] |
| --- | --- |
| NH2-(AEEA)10-GKPSSDDEATADSQHSTPPKKKRKVED-COOH [Peptide 3] | 91 |
| H-GKPTADDQHSTPPKKKRKVED-OH [Peptide 1] | 94 |
| H-GKPSSDDEATADSQHSTPPKKKRKVED-OH [Peptide 2] | 96 |

same assay, conditions: 65 °C, 10 min; 25 μM PNA-peptide-hybrid, 100 ng vector

| Substance | Portion of peptide-labelled DNA shown as percentage of input DNA [%] |
| --- | --- |
| NH2-(AEEA)10-GKPSSDDEATADSQHSTPPKKKRKVED-COOH [Peptide 3] | 95 |
| H-GKPTADDQHSTPPKKKRKVED-OH [Peptide 1] | 96 |
| H-GKPSSDDEATADSQHSTPPKKKRKVED-OH [Peptide 2] | 97 |

same assay, conditions: 65 °C, 15 min; 25 μM PNA-peptide-hybrid, 100 ng vector

| Substance | Portion of peptide-labelled DNA shown as percentage of input DNA [%] |
| --- | --- |
| NH2-(AEEA)10-GKPSSDDEATADSQHSTPPKKKRKVED-COOH [Peptide 3] | 95 |
| H-GKPTADDQHSTPPKKKRKVED-OH [Peptide 1] | 96 |
| H-GKPSSDDEATADSQHSTPPKKKRKVED-OH [Peptide 2] | 97 |
